Our source for the IC50 values is patent US20070015759A1, “Metasubstituted thiazolidinones, their manufacture and use as a drug” (priority 2004, published 2007).

In assay [1] the test system is human MaTu breast tumor cells. Nature of the assay: Proliferation assay (crystal violet staining). The format is cell-based. Conditions: 96 h, incubated for 4 days with test substance, read-out: Inhibition of tumor cell proliferation (MaTu) IC50. The procedure: Cultivated human MaTu breast tumor cells were spread on plates to a thickness of 5000 cells per measuring point in a 96-hole multititerplate in 200 μl of the appropriate growth medium. After 24 hours the cells of one plate (the zero-point plate) were stained with crystal violet (see below), while the medium of the other plates was replaced by fresh culture medium (200 μl), to which was added the test substances in various concentrations (0 μM and in the range of 0.01 to 30 μm; the final concentration of the dimethylsulfoxide solvent was 0.5%). The cells were incubated for 4 days in the presence of the test substances. The cell proliferation was determined by the staining of the cells with crystal violet. The cells were fixed by the addition of 20 μl per measuring point of an 11% glutaraldehyde solution for 15 minutes at room temperature. After the fixed cells were washed three times with water, the plates were dried at room temperature. The cells were stained by the addition of 100 μl per measuring point of a 0.1% crystal violet solution (pH set at pH3 through the addition of acetic acid). After the fixed cells were washed three times with water, the plates were dried at room temperature. The coloring was dissolved by the addition of 100 μl per measuring point of a 10% acetic acid solution. Extinction was determined photometrically at a wave length of 595 nm. The percentage change of the cell growth was calculated by normalizing the measured values at the extinction value of the zero-point plate (=0%) and the extinction of the untreated cells (0 μM) (=100%).

Assay [2] concerns the target T1, Recombinant human Plk-1 (6×His) (Homo sapiens, UniProt P53350).
T1 construct: 6xHis; made in house; host or cells: Hi5 insect cells, baculovirus
Nature of the assay: PLK enzyme assay (33P-γ-ATP incorporation into biotin casein, SPA beads). It counts as biochemical. Conditions: 0.5 μM ATP, 0.7 μM casein, 90 minutes at room temperature, read-out: Inhibition PLK-1 IC50. The procedure:
Recombinant human Plk-1 (6×His) was purified from insect cells (Hi5) infected with a baculovirus.
10 ng (recombinant created, purified) PLK enzyme is incubated for 90 minutes at room temperature with biotin casein and 33P-γ-ATP as a sub-stratum in a volume of 15 μl in 384 well Greiner Small Volume Microtiterplates (final concentration in buffer: 660 ng/ ml PLK; 0.7 μM Casein, 0.5 μM ATP incl. 400 nCi/ml 33P-γ-ATP; 10 mM MgCl2, 1 mM MnCl2; 0.01% NP40; 1 mM DTT, Protease inhibitors; 0.1 mM Na2VO3 in 50 mM HEPES pH 7.5). At the end of the reaction a 5 μl stop solution (500 μM ATP; 500 mM EDTA; 1% triton ×100; 100 mg/ ml streptavidin coated SPA Beads in PBS) was added. After the microtiter plate is closed with foil, the beads are sedimented through centrifugation (10 min., 1500 rpm). The fixing of the 33P-γ-ATP in casein was set as a measure of the enzyme activity by β-Counting.
Test substances were introduced in various concentrations (0 μM, and in the range of 0.01-30 μM). The final concentration of the dimethylsulfoxide solvent in all concentrations amounted to 1.5%.

T1 sequence (P53350 whole entry): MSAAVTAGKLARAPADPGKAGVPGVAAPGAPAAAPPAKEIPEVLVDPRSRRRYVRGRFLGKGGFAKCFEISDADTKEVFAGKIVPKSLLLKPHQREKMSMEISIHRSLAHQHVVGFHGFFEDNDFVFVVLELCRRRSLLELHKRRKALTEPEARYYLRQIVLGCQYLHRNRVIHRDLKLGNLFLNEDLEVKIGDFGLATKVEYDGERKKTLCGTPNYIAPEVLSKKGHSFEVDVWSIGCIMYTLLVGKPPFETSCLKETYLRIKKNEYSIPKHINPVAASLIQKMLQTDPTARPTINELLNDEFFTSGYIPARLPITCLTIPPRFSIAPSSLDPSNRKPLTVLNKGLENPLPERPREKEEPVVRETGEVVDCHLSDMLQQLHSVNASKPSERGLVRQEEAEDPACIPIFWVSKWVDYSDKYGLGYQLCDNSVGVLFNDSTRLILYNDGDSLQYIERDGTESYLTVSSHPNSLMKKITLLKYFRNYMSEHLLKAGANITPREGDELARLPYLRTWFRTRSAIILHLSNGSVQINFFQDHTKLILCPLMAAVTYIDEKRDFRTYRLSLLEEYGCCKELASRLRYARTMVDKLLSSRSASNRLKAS

Take `CCn1c(=C(C#N)C(=O)NCC(F)(F)F)sc(=CNc2cccc(CCN3CCCC3)c2)c1=O` (mixture of isomers) [Example 30, 2-Cyano-2-[3-ethyl-4-oxo-5-[1-[3-(2-pyrrolidin-1-yl-ethyl)-phenylamino]-meth-(E/Z)-ylidene]-thiazolidin-(2-(E or Z))-ylidene]-N-(2,2,2-trifluoro-ethyl)-acetamide]: the IC50 came out at 200 nM in assay [1] and 16 nM in assay [2].
Taken in the same sequence, the figures for `CCn1c(=C(C#N)C(=O)NCC(F)(F)F)sc(=CNc2cccc(NC(=O)C(C)(C)C)n2)c1=O` (mixture of isomers) [Example 41, 2-Cyano-2-[5-[1-[6-(2,2-dimethyl-propionylamino)-pyridin-2-ylamino]-meth-(E/Z)-ylidene]-3-ethyl-4-oxo-thiazolidin-(2-(E or Z))-ylidene]-N-(2,2,2-trifluoro-ethyl)-acetamide] were 830 nM and 20 nM.
For the compound `CCNC(=O)C(C#N)=c1sc(=CNc2cccc(NC(=O)CN3CCCC3)c2)c(=O)n1CC` (mixture of isomers) [Example 55, 2-Cyano-N-ethyl-2-[3-ethyl-4-oxo-5-[1-[3-(2-pyrrolidin-1-yl-acetylamino)-phenylamino]-meth-(E/Z)-ylidene]-thiazolidin-(2-(E or Z))-ylidene]-acetamide], the IC50 worked out at 780 nM in assay [1] and 150 nM in assay [2].
In the case of `C#CCNC(=O)C(C#N)=c1sc(=CNc2ccc(F)c(NC(=O)C(C)(C)C)c2)c(=O)n1CC` (mixture of isomers) [Example 63, 2-Cyano-2-[5-[1-[3-(2,2-dimethyl-propionylamino)-4-fluoro-phenylamino]-meth-(E/Z)-ylidene]-3-ethyl-4-oxo-thiazolidin-(2-(E or Z))-ylidene]-N-prop-2-ynyl-acetamide], the IC50 came out at 650 nM in assay [1] and 100 nM in assay [2].
For `C#CCNC(=O)C(C#N)=c1sc(=CNc2cccc(OCCN(C)C)c2)c(=O)n1CC` (mixture of isomers) [Example 126, 2-Cyano-2-[5-[1-[3-(2-dimethylamino-ethoxy)-phenylamino]-meth-(E/Z)-ylidene]-3-ethyl-4-oxo-thiazolidin-(2Z or E)-ylidene]-N-prop-2-ynyl-acetamide], the IC50 in assay [1] was 590 nM; in assay [2], 22 nM.
Taken in the same sequence, the figures for `CCn1c(=C(C#N)C(=O)NCC(F)F)sc(=CNc2cccc(OCCN(C)C)c2)c1=O` (mixture of isomers) [Example 127, 2-Cyano-N-(2,2-difluoro-ethyl)-2-[5-[1-[3-(2-dimethylamino-ethoxy)-phenylamino]-meth-(E/Z)-ylidene]-3-ethyl-4-oxo-thiazolidin-(2-(E or Z))-ylidene]-acetamide] were 330 nM and 24 nM.
The corresponding values for `C#CCNC(=O)C(C#N)=c1sc(=CNc2ccc(OCCN(C)C)cc2)c(=O)n1CC` [Comparison 307 from PCT/EP2004/ 012242, reference compound] are 1700 nM and 71 nM.
With `CCn1c(=C(C#N)C(=O)NCC(F)F)sc(=CNc2ccc(OCCN(C)C)cc2)c1=O` [Comparison 310 from PCT/EP2004/ 012242, reference compound], the IC50 in assay [1] stood at 5600 nM; in assay [2], 74 nM.
On to `C#CCNC(=O)C(C#N)=c1sc(=CNc2ccc(C(=O)NCCN3CCCC3)c(NC(=O)C(C)(C)C)c2)c(=O)n1CC` [Comparison 323 from PCT/EP2004/ 012242, reference compound], for which the IC50 turned out to be 2500 nM in assay [1] and 140 nM in assay [2].
As to `CCn1c(=C(C#N)C(=O)NCC(F)(F)F)sc(=CNc2ccc(C(=O)NCCN3CCCC3)c(NC(=O)C(C)(C)C)c2)c1=O` [Comparison 326 from PCT/EP2004/ 012242, reference compound], the IC50 is 1600 nM in assay [1] and 73 nM in assay [2].
In the case of `CCn1c(=C(C#N)C(=O)NCC(F)(F)F)sc(=CNc2ccc(CCN3CCCC3)cc2)c1=O` [Comparison 527 from PCT/EP2004/ 012242, reference compound], in assay [1], the IC50 came out at 2800 nM.
